Assays:
Test in all cases: relative viability (nuclei count vs DMSO), 5 days (fraction); higher = more cells survive
[1] = compound: Cn1nnc2c(C(N)=O)ncn2c1=O [Temozolomide] + Nc1ncn([C@H]2C[C@H](O)[C@@H](CO)O2)c(=O)n1 [Decitabine] (partner 2 µM)
Procedure, shortened: (§1)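 For relative viability, nuclei counts in treated wells were divided by those in vehicle wells. Lung cancer cell lines had been pin-tool dosed in 1536-well plates the day after seeding and cultured for 5 days, then fixed and stained in one step (final 0.05% Triton X-100, 1% formaldehyde, 1 ug/ml Hoechst) and imaged at 4×. Doses were one drug alone or a fixed anchor-drug dose plus five library-drug doses (not always all listed) in √10 steps, and values are duplicate-plate medians.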

AZD5582 + Palbociclib = compound: C[C@@H](C(=O)N[C@@H](C1CCCCC1)C(=O)N2CCC[C@H]2C(=O)N[C@@H]3[C@@H](CC4=CC=CC=C34)OCC#CC#CCO[C@@H]5CC6=CC=CC=C6[C@@H]5NC(=O)[C@@H]7CCCN7C(=O)[C@H](C8CCCCC8)NC(=O)[C@H](C)NC)NC [AZD5582] + CC(=O)c1c(C)c2cnc(Nc3ccc(N4CCNCC4)cn3)nc2n(C2CCCC2)c1=O [Palbociclib] (partner 0.5 µM)
Procedure, shortened: as §1

Temozolomide + Alpelisib = compound: Cn1nnc2c(C(N)=O)ncn2c1=O [Temozolomide] + Cc1nc(NC(=O)N2CCC[C@H]2C(N)=O)sc1-c1ccnc(C(C)(C)C(F)(F)F)c1 [Alpelisib] (partner 2 µM)
Procedure, shortened: as §1

AZD5582 + Pemetrexed = compound: C[C@@H](C(=O)N[C@@H](C1CCCCC1)C(=O)N2CCC[C@H]2C(=O)N[C@@H]3[C@@H](CC4=CC=CC=C34)OCC#CC#CCO[C@@H]5CC6=CC=CC=C6[C@@H]5NC(=O)[C@@H]7CCCN7C(=O)[C@H](C8CCCCC8)NC(=O)[C@H](C)NC)NC [AZD5582] + Nc1nc2[nH]cc(CCc3ccc(C(=O)N[C@@H](CCC(=O)O)C(=O)O)cc3)c2c(=O)[nH]1 [Pemetrexed] (partner 0.2 µM)
Procedure, shortened: as §1

Cell Line	relative viability ([1]; first compound 0.2 µM)	relative viability ([1]; first compound 0.6325 µM)	relative viability ([1]; first compound 2 µM)	relative viability ([1]; first compound 6.325 µM)	relative viability ([1]; first compound 20 µM)	relative viability (AZD5582 + Palbociclib; first compound 0.001581 µM)	relative viability (AZD5582 + Palbociclib; first compound 0.005 µM)	relative viability (AZD5582 + Palbociclib; first compound 0.05 µM)	relative viability (Temozolomide + Alpelisib; first compound 0.2 µM)	relative viability (Temozolomide + Alpelisib; first compound 0.6325 µM)	relative viability (Temozolomide + Alpelisib; first compound 2 µM)	relative viability (Temozolomide + Alpelisib; first compound 6.325 µM)	relative viability (Temozolomide + Alpelisib; first compound 20 µM)	relative viability (AZD5582 + Pemetrexed; first compound 0.001581 µM)	relative viability (AZD5582 + Pemetrexed; first compound 0.005 µM)	relative viability (AZD5582 + Pemetrexed; first compound 0.05 µM)	relative viability (AZD5582 + Palbociclib; first compound 0.01581 µM)	relative viability (AZD5582 + Pemetrexed; first compound 0.01581 µM)
LK-2	0.318	0.284	0.263	0.225	0.211	0.553	0.738	0.75	0.544	1.07	1.1	0.466	0.391	0.199	0.25	0.256		
LCLC-97TM1	0.232	0.245	0.223	0.216	0.253	0.172	0.282	0.165	0.253	0.236	0.28	0.246	0.249	0.185	0.205	0.16	0.24	0.16
PC-3 [JPC-3]	0.787	0.854	0.886	0.762	0.498	0.483	0.512	0.478	1.09	0.982	0.979	1.07	0.396	0.824	0.957	0.519	0.58	1.03
NCI-H1975	0.401	0.42	0.399	0.372	0.355	0.547	0.728	0.52	0.711	0.712	0.718	0.642	0.676	0.266	0.248	0.235	0.548	0.291
NCI-H647	0.339	0.429	0.337	0.283	0.293	0.26	0.39	0.387	1.43	1.21	1.16	0.866	0.238	0.126	0.14	0.124	0.394	0.193
NCI-H838	0.493	0.495	0.462	0.439	0.475	0.214	0.257	0.213	1.1	1.06	1.1	0.968	1.02	0.258	0.246	0.262	0.191	0.235
LCLC-103H	0.779	0.757	0.743	0.764	0.599	0.47	0.469	0.377	0.819	0.976	1.09	0.999	0.927	0.386	0.426	0.352	0.432	0.443
NCI-H2087	0.306	0.314	0.322	0.281	0.299	0.188	0.23	0.241	1.26	1.05	1.15	1.12	1.11	0.656	0.665	0.656	0.225	0.662
NCI-H322M	0.619	0.704	0.697	0.717	0.576	0.526	0.521	0.605		0.81	0.803	0.747	0.609	0.705	0.732	0.785	0.456	0.659
PC-14	0.27	0.241	0.245	0.21	0.182	0.401	0.322	0.34	1.08	0.958	0.95	0.867	0.217	0.105	0.112	0.101	0.47	0.14
NCI-H460	0.523	0.481	0.479	0.439	0.463	0.102	0.189	0.148	0.58	0.526	0.51	0.479	0.461	0.0644	0.0659	0.059	0.211	0.0592
SK-LU-1	0.683	0.671	0.575	0.458	0.477	0.333	0.366	0.247	1.43	0.976	0.901	0.525	0.394	0.73	0.5	0.285	0.331	0.978
H3255		0.652	0.812	0.514	0.187	0.29	0.306	0.318		0.686	0.599	0.755	0.146	0.492	0.563	0.573	0.302	0.512
NCI-H1355	0.37	0.4	0.362	0.336	0.34	0.378	0.415	0.357	0.834	0.943	0.842	0.815	0.803	0.942	1	0.815	0.386	0.986
NCI-H661	0.527	0.598	0.632	0.495	0.545	0.403	0.44	0.429		0.618	0.759	0.714	0.545	0.915	0.899	0.904	0.464	0.98
NCI-H2170		0.511	0.45	0.383	0.268	0.37	0.388	0.492		0.796	0.849	0.607	0.4	0.26	0.249	0.269	0.364	0.268
